# Reference: US20220370406A1, “METHOD OF TREATING STIMULANT USE DISORDER USING A COMBINATION OF TOPIRAMATE AND PHENTERMINE” (University of Kentucky Research Foundation, priority 2019, published 2022)
# Columns and labels:
# [1] = system: participants with cocaine use disorder; test: Experimental sessions: cardiovascular measures after cocaine sampling dose during maintenance; conditions: cocaine 80 mg during topiramate (50 or 100 mg/day)+phentermine (0 mg/day) relative to cocaine 0 mg during 0+0 mg/day
# [2] = system: participants with cocaine use disorder; test: Medical safety session: cardiovascular measures after intranasal cocaine; type: in vivo, human
# Method: Participants completed one, single-blind medical safety session to ensure they could tolerate intranasal cocaine. Intranasal cocaine doses (i.e., 0 [placebo], 10, 20, 40 and 80 mg) were administered in ascending order. Placebo (i.e., 0 mg) was administered at 0900 hours. The subjective-effect questionnaires and cardiovascular measures described below were completed 30 minutes before placebo administration (i.e., 0830 hours), immediately following and at 15-minute intervals for 45 minutes. Subsequent cocaine administrations were separated by 45 minutes.
# [3] = Cocaine 10 mg, Topiramate (0 mg/day) group
# [4] = Cocaine 10 mg, Topiramate (50 mg/day) group
# [5] = Cocaine 10 mg, Topiramate (100 mg/day) group
# [6] = Cocaine 20 mg, Topiramate (0 mg/day) group
# [7] = Cocaine 20 mg, Topiramate (50 mg/day) group
# [8] = Cocaine 20 mg, Topiramate (100 mg/day) group
# [9] = Cocaine 40 mg, Topiramate (0 mg/day) group
# [10] = Cocaine 40 mg, Topiramate (50 mg/day) group
# [11] = Cocaine 40 mg, Topiramate (100 mg/day) group
# [12] = Cocaine 80 mg, Topiramate (0 mg/day) group
# [13] = Cocaine 80 mg, Topiramate (50 mg/day) group
# [14] = Cocaine 80 mg, Topiramate (100 mg/day) group
smiles,measurement,setting,value
"COC(=O)[C@H]1[C@@H](OC(=O)c2ccccc2)C[C@@H]2CC[C@H]1N2C [Cocaine, cocaine]",heart rate,[1],significantly increased
same,"Vitals Diastolic Pressure, mean peak effect",[2]; [3],77.2
same,"Vitals Heart Rate, mean peak effect",[2]; [3],70.9
same,"Vitals Systolic Pressure, mean peak effect",[2]; [3],121.1
same,"Vitals Diastolic Pressure, mean peak effect",[2]; [4],84.8
same,"Vitals Heart Rate, mean peak effect",[2]; [4],67.4
same,"Vitals Systolic Pressure, mean peak effect",[2]; [4],123.9
same,"Vitals Diastolic Pressure, mean peak effect",[2]; [5],82.6
same,"Vitals Heart Rate, mean peak effect",[2]; [5],66.7
same,"Vitals Systolic Pressure, mean peak effect",[2]; [5],125.1
same,"Vitals Diastolic Pressure, mean peak effect",[2]; [6],81.5
same,"Vitals Heart Rate, mean peak effect",[2]; [6],77.9
same,"Vitals Systolic Pressure, mean peak effect",[2]; [6],125.3
same,"Vitals Diastolic Pressure, mean peak effect",[2]; [7],84.1
same,"Vitals Heart Rate, mean peak effect",[2]; [7],66.6
same,"Vitals Systolic Pressure, mean peak effect",[2]; [7],131.8
same,"Vitals Diastolic Pressure, mean peak effect",[2]; [8],82.3
same,"Vitals Heart Rate, mean peak effect",[2]; [8],64.6
same,"Vitals Systolic Pressure, mean peak effect",[2]; [8],128.3
same,"Vitals Diastolic Pressure, mean peak effect",[2]; [9],81.6
same,"Vitals Heart Rate, mean peak effect",[2]; [9],74.8
same,"Vitals Systolic Pressure, mean peak effect",[2]; [9],124.9
same,"Vitals Diastolic Pressure, mean peak effect",[2]; [10],82.4
same,"Vitals Heart Rate, mean peak effect",[2]; [10],70.8
same,"Vitals Systolic Pressure, mean peak effect",[2]; [10],129.9
same,"Vitals Diastolic Pressure, mean peak effect",[2]; [11],86.5
same,"Vitals Heart Rate, mean peak effect",[2]; [11],67.8
same,"Vitals Systolic Pressure, mean peak effect",[2]; [11],131.7
same,"Vitals Diastolic Pressure, mean peak effect",[2]; [12],85.9
same,"Vitals Heart Rate, mean peak effect",[2]; [12],85.8
same,"Vitals Systolic Pressure, mean peak effect",[2]; [12],130.5
same,"Vitals Diastolic Pressure, mean peak effect",[2]; [13],84.8
same,"Vitals Heart Rate, mean peak effect",[2]; [13],78.0
same,"Vitals Systolic Pressure, mean peak effect",[2]; [13],133.8
same,"Vitals Diastolic Pressure, mean peak effect",[2]; [14],88.3
same,"Vitals Heart Rate, mean peak effect",[2]; [14],77.6
same,"Vitals Systolic Pressure, mean peak effect",[2]; [14],137.4
same,heart rate or blood pressure,"[2]; cocaine 20, 40 or 80 mg above placebo levels in at least one of the topiramate groups, medical safety session",significantly increased
